Experimental data: patent publication US9682083B2, “Pyrrolo[2,3-D]pyrimidine derivatives, process for their preparation and their use as kinase inhibitors” (NERVIANO MEDICAL SCIENCES S.R.L., priority 2013, dated 2017)

What was measured:
Format in all cases: cell-based
A2780 ovarian carcinoma = assay: In vitro cell proliferation assay (CellTiterGlo), A2780 control line; settings: Homo sapiens, antiproliferative activity, 72 hours exposure, non RET-dependent control cell line
Protocol: (§1) In Vitro Cell Proliferation Assay
(§2) To evaluate the antiproliferative activity of a compound of formula (I) the following human cell lines were used: A2780 ovarian carcinoma; TT and MZ-CRC-1 medullary thyroid carcinoma, harboring a mutated RET-C634W and RET-M918T receptor respectively; LC-2/ad human lung adenocarcinoma, harboring the CCDC6-RET fusion protein. Exponentially growing cells were seeded and incubated at 37° C. in a humidified 5% CO2 atmosphere using appropriate medium supplemented with 10% Fetal Bovine Serum. 24 hours following cell plating, scalar doses of the compounds dissolved in 0.1% DMSO were added to the medium and cells were exposed to drugs for either 72 hours (A2780) or 144 hours (TT, MZ-CRC-1 and LC-2/ad), according to their different proliferation rate. At the end of treatment, cell proliferation was determined by an intracellular ATP monitoring system (CellTiterGlo—Promega), following manufacturer's instructions, and using an Envision instrument (PerkinElmer) as reader. Data obtained from compound versus vehicle treated cells were compared using Assay Explorer (Symyx Technologies Inc) software. IC50 values were calculated using sigmoidal interpolation curve fitting.
(§3) In the following Table A the antiproliferative activity of representative compounds of formula (I) on two medullary thyroid carcinoma cell lines expressing the aforementioned mutated forms of RET (TT and MZ-CRC-1) and on one lung adenocarcinoma cell line harboring the aforementioned fusion form of RET (LC-2/ad) is reported. As control, the antiproliferative activity of the same compounds on an unrelated non RET-dependent cell line (A2780) is reported. All these compounds show remarkable activity on RET-driven cellular models with respect to the unrelated ones.

[1] = test system: TT medullary thyroid carcinoma, harboring a mutated RET-C634W receptor; assay: In vitro cell proliferation assay (CellTiterGlo), TT; settings: Homo sapiens, antiproliferative activity, 144 h exposure
Protocol: as §1, §2, §3

[2] = test system: MZ-CRC-1 medullary thyroid carcinoma, harboring a mutated RET-M918T receptor; assay: In vitro cell proliferation assay (CellTiterGlo), MZ-CRC-1; settings: Homo sapiens, antiproliferative activity, 144 h exposure
Protocol: as §1, §2, §3

[3] = test system: LC-2/ad human lung adenocarcinoma, harboring the CCDC6-RET fusion protein; assay: In vitro cell proliferation assay (CellTiterGlo), LC-2/ad; settings: antiproliferative activity, 144 h exposure
Protocol: as §1, §2, §3

Compound | IC50 (A2780 ovarian carcinoma) | IC50 [1] | IC50 [2] | IC50 [3]
Cc1ccc(C(=O)Nc2cccc(C#Cc3c[nH]c4ncnc(N)c34)c2)cc1 [cmpd 31, N-{3-[(4-amino-7H-pyrrolo[2,3-d]pyrimidin-5-yl)ethynyl]phenyl}-4-methylbenzamide] | 4450 nM | 0.111 µM | – | –
Nc1ncnc2c1c(C#Cc1cc(F)cc(C(=O)NC3CC3)c1)cn2CC(F)(F)F [cmpd 59, 3-{[4-amino-7-(2,2,2-trifluoroethyl)-7H-pyrrolo[2,3-d]pyrimidin-5-yl]ethynyl}-N-cyclopropyl-5-fluorobenzamide] | 2140 nM | 0.036 µM | 0.04 µM | 0.048 µM
Cn1cc(C#Cc2cccc(C(=O)NC3CC3)c2)c2c(N)ncnc21 [cmpd 93, 3-[(4-amino-7-methyl-7H-pyrrolo[2,3-d]pyrimidin-5-yl)ethynyl]-N-cyclopropylbenzamide] | 4540 nM | 0.035 µM | 0.264 µM | 0.241 µM
Nc1ncnc2c1c(C#Cc1cccc(C(=O)NC3CC3)c1)cn2-c1cccnc1 [cmpd 68, 3-{[4-amino-7-(pyridin-3-yl)-7H-pyrrolo[2,3-d]pyrimidin-5-yl]ethynyl}-N-cyclopropylbenzamide] | 7180 nM | 0.043 µM | – | 0.021 µM
Nc1ncnc2[nH]cc(C#Cc3cccc(NC(=O)Cc4cccc(C(F)(F)F)c4)c3)c12 [cmpd 11, N-[3-(4-Amino-7H-pyrrolo[2,3-d]pyrimidin-5-ylethynyl)-phenyl]-2-(3-trifluoromethyl-phenyl)-acetamide] | 601 nM | 0.249 µM | – | –
COc1cccc(-n2cc(C#Cc3cccc(C(=O)NC4CC4)c3)c3c(N)ncnc32)c1 [cmpd 70, 3-{[4-amino-7-(3-methoxyphenyl)-7H-pyrrolo[2,3-d]pyrimidin-5-yl]ethynyl}-N-cyclopropylbenzamide] | > 10000 nM | 0.213 µM | – | 0.213 µM
Nc1ncnc2c1c(C#Cc1cccc(C(=O)NC3CC3)c1)cn2CCO [cmpd 37, 3-{[4-amino-7-(2-hydroxyethyl)-7H-pyrrolo[2,3-d]pyrimidin-5-yl]ethynyl}-N-cyclopropylbenzamide] | 6790 nM | 0.109 µM | 0.271 µM | 0.115 µM
Nc1ncnc2c1c(C#Cc1cccc(C(=O)NC3CC3)c1)cn2CCF [cmpd 86, 3-{[4-amino-7-(2-fluoroethyl)-7H-pyrrolo[2,3-d]pyrimidin-5-yl]ethynyl}-N-cyclopropylbenzamide] | 1910 nM | 0.025 µM | – | 0.018 µM
Nc1ncnc2[nH]cc(C#Cc3cccc(C(=O)NC4CC4)c3)c12 [cmpd 15, 3-[(4-amino-7H-pyrrolo[2,3-d]pyrimidin-5-yl)ethynyl]-N-cyclopropylbenzamide] | 4360 nM | 0.192 µM | – | –
CN1CCC(n2cc(C#Cc3cccc(C(=O)NC4CC4)c3)c3c(N)ncnc32)CC1 [cmpd 46, 3-{[4-amino-7-(1-methylpiperidin-4-yl)-7H-pyrrolo[2,3-d]pyrimidin-5-yl]ethynyl}-N-cyclopropylbenzamide] | 4320 nM | 0.023 µM | – | 0.02 µM
CC(C)n1cc(C#Cc2cc(F)cc(C(=O)NC3CC3)c2)c2c(N)ncnc21 [cmpd 58, 3-{[4-amino-7-(propan-2-yl)-7H-pyrrolo[2,3-d]pyrimidin-5-yl]ethynyl}-N-cyclopropyl-5-fluorobenzamide] | 539 nM | 0.004 µM | – | 0.004 µM
CCC(C)n1cc(C#Cc2cccc(C(=O)NC3CC3)c2)c2c(N)ncnc21 (stereo not drawn) [cmpd 85, 3-{[4-amino-7-(butan-2-yl)-7H-pyrrolo[2,3-d]pyrimidin-5-yl]ethynyl}-N-cyclopropylbenzamide] | 1600 nM | 0.03 µM | – | 0.024 µM
CC(C)n1cc(C#Cc2cccc(C(=O)NC3CC3)c2)c2c(N)ncnc21 [cmpd 40, 3-{[4-amino-7-(propan-2-yl)-7H-pyrrolo[2,3-d]pyrimidin-5-yl]ethynyl}-N-cyclopropylbenzamide] | 1930 nM | 0.022 µM | 0.049 µM | 0.033 µM
CC(C)n1cc(C#Cc2cc(C(=O)NC3CC3)ccc2C#N)c2c(N)ncnc21 [cmpd 108, 3-{[4-amino-7-(propan-2-yl)-7H-pyrrolo[2,3-d]pyrimidin-5-yl]ethynyl}-4-cyano-N-cyclopropylbenzamide] | 6110 nM | 0.023 µM | – | 0.045 µM
CCn1c(C)c(C#Cc2cccc(C(=O)NC3CC3)c2)c2c(N)ncnc21 [cmpd 87, 3-[(4-amino-7-ethyl-6-methyl-7H-pyrrolo[2,3-d]pyrimidin-5-yl)ethynyl]-N-cyclopropylbenzamide] | 1520 nM | 0.019 µM | – | 0.012 µM
Nc1ncnc2c1c(C#Cc1cccc(C(=O)NC3CC3)c1)cn2CC1CC1 [cmpd 99, 3-{[4-amino-7-(cyclopropylmethyl)-7H-pyrrolo[2,3-d]pyrimidin-5-yl]ethynyl}-N-cyclopropylbenzamide] | 1800 nM | 0.017 µM | – | 0.019 µM
CN1CCC(n2cc(C#Cc3cccc(C(=O)NC4CC4)c3)c3c(N)ncnc32)C1 (stereo not drawn) [cmpd 89, 3-{[4-amino-7-(1-methylpyrrolidin-3-yl)-7H-pyrrolo[2,3-d]pyrimidin-5-yl]ethynyl}-N-cyclopropylbenzamide] | 6690 nM | 0.136 µM | – | 0.127 µM
Nc1ncnc2[nH]cc(C#Cc3cccc(NC(=O)c4cccc(F)c4)c3)c12 [cmpd 26, N-{3-[(4-amino-7H-pyrrolo[2,3-d]pyrimidin-5-yl)ethynyl]phenyl}-3-fluorobenzamide] | 3670 nM | 0.14 µM | – | 0.49 µM
Nc1ncnc2c1c(C#Cc1cccc(C(=O)NC3CC3)c1)cn2CC1CCC1 [cmpd 95, 3-{[4-amino-7-(cyclobutylmethyl)-7H-pyrrolo[2,3-d]pyrimidin-5-yl]ethynyl}-N-cyclopropylbenzamide] | 2450 nM | 0.06 µM | – | 0.032 µM

Results, then the compound that gave them:

IC50 (A2780 ovarian carcinoma) | IC50 [1] | IC50 [2] | IC50 [3] | Compound
6900 nM | 0.865 µM | – | – | Nc1ncnc2[nH]cc(C#Cc3cccc(NC(=O)c4ccccc4)c3)c12 [cmpd 9, N-{3-[(4-amino-7H-pyrrolo[2,3-d]pyrimidin-5-yl)ethynyl]phenyl}benzamide]
137 nM | 0.003 µM | 0.024 µM | 0.066 µM | Nc1ncnc2[nH]cc(C#Cc3cccc(NC(=O)c4cccc(C(F)(F)F)c4)c3)c12 [cmpd 24, N-{3-[(4-amino-7H-pyrrolo[2,3-d]pyrimidin-5-yl)ethynyl]phenyl}-3-(trifluoromethyl)benzamide]
695 nM | 0.012 µM | 0.222 µM | 0.111 µM | CCN1CCN(Cc2ccc(NC(=O)Cc3cccc(C#Cc4c[nH]c5ncnc(N)c45)c3)cc2C(F)(F)F)CC1 [cmpd 12, 2-[3-(4-Amino-7H-pyrrolo[2,3-d]pyrimidin-5-ylethynyl)-phenyl]-N-[4-(4-ethyl-piperazin-1-ylmethyl)-3-trifluoromethyl-phenyl]-acetamide]
837 nM | 0.01 µM | – | 0.009 µM | CC(C)n1cc(C#Cc2cc(C(=O)NC3CC3)ccc2F)c2c(N)ncnc21 [cmpd 53, 3-{[4-amino-7-(propan-2-yl)-7H-pyrrolo[2,3-d]pyrimidin-5-yl]ethynyl}-N-cyclopropyl-4-fluorobenzamide]
1520 nM | 0.052 µM | – | 0.048 µM | CC1(Cn2cc(C#Cc3cccc(C(=O)NC4CC4)c3)c3c(N)ncnc32)COC1 [cmpd 88, 3-({4-amino-7-[(3-methyloxetan-3-yl)methyl]-7H-pyrrolo[2,3-d]pyrimidin-5-yl}ethynyl)-N-cyclopropylbenzamide]
3290 nM | 0.02 µM | 0.068 µM | 0.053 µM | Nc1ncnc2c1c(C#Cc1cc(C(=O)NC3CC3)ccc1F)cn2CC(F)(F)F [cmpd 54, 3-{[4-amino-7-(2,2,2-trifluoroethyl)-7H-pyrrolo[2,3-d]pyrimidin-5-yl]ethynyl}-N-cyclopropyl-4-fluorobenzamide]
1590 nM | 0.016 µM | – | 0.019 µM | Cc1ccc(C(=O)NC2CC2)cc1C#Cc1cn(C(C)C)c2ncnc(N)c12 [cmpd 51, 3-{[4-amino-7-(propan-2-yl)-7H-pyrrolo[2,3-d]pyrimidin-5-yl]ethynyl}-N-cyclopropyl-4-methylbenzamide]
46 nM | 0.001 µM | – | 0.004 µM | CCN1CCN(Cc2ccc(NC(=O)c3cccc(C#Cc4cn(C(C)C)c5ncnc(N)c45)c3)cc2C(F)(F)F)CC1 [cmpd 82, 3-{[4-amino-7-(propan-2-yl)-7H-pyrrolo[2,3-d]pyrimidin-5-yl]ethynyl}-N-{4-[(4-ethylpiperazin-1-yl)methyl]-3-(trifluoromethyl)phenyl}benzamide]
5880 nM | 0.227 µM | – | 0.279 µM | CC(C)n1cc(C#Cc2cccc(C(N)=O)c2)c2c(N)ncnc21 [cmpd 110, 3-{[4-amino-7-(propan-2-yl)-7H-pyrrolo[2,3-d]pyrimidin-5-yl]ethynyl}benzamide]
